Experimental data taken from ChEMBL document CHEMBL3525898, “Pharmacogenomics of gemcitabine metabolism: functional analysis of genetic variants in cytidine deaminase and deoxycytidine kinase” (Drug Metab Dispos, 2013).

Experiments:
Assay type in all cases: ADME
[1] = Activity of human recombinant N-terminal His-tagged DCK Pro122Ser mutant expressed in Escherichia coli BL21(DE3) cells assessed as cytosine-beta-D-arabinofuranoside-5'-MP formation incubated for 3 mins by liquid chromatography-tandem mass spectrometry; conditions: 0.05 h
[2] = Activity of human recombinant N-terminal His-tagged DCK Ile24Val mutant expressed in Escherichia coli BL21(DE3) cells assessed as cytosine-beta-D-arabinofuranoside-5'-MP formation incubated for 3 mins by liquid chromatography-tandem mass spectrometry; conditions: 0.05 h
[3] = Activity of human recombinant N-terminal His-tagged DCK Ala119Gly mutant expressed in Escherichia coli BL21(DE3) cells assessed as cytosine-beta-D-arabinofuranoside-5'-MP formation incubated for 3 mins by liquid chromatography-tandem mass spectrometry; conditions: 0.05 h
[4] = Drug metabolism assessed as […] incubated for 1 min in presence of human recombinant N-terminal His-tagged DCK Pro122Ser mutant expressed in Escherichia coli BL21(DE3) cells by liquid chromatography-tandem mass spectrometry
[5] = Drug metabolism assessed as […] incubated for 1 min in presence of human recombinant N-terminal His-tagged DCK Ile24Val mutant expressed in Escherichia coli BL21(DE3) cells by liquid chromatography-tandem mass spectrometry
[6] = Drug metabolism assessed as […] incubated for 1 min in presence of human recombinant N-terminal His-tagged DCK Ala119Gly mutant expressed in Escherichia coli BL21(DE3) cells by liquid chromatography-tandem mass spectrometry
[7] = Ratio of intrinsic clearance for human recombinant N-terminal His-tagged DCK Ile24Val mutant expressed in Escherichia coli BL21(DE3) cells to intrisic clerance for human recombinant N-terminal His-tagged wild type DCK expressed in Escherichia coli BL21(DE3) cells

| Km [1] [µM] | Vmax [1] [nmol/min/mg] | Km [2] [µM] | Vmax [2] [nmol/min/mg] | Km [3] [µM] | Vmax [3] [nmol/min/mg] | Km [4] [µM] | Vmax [4] [nmol/min/mg] | Km [5] [µM] | Vmax [5] [nmol/min/mg] | Km [6] [µM] | Vmax [6] [nmol/min/mg] | Ratio [7] | Compound |
| --- | --- | --- | --- | --- | --- | --- | --- | --- | --- | --- | --- | --- | --- |
| 1.56 | 264 | 2.45 | 599.4 | 2.54 | 580.3 |  |  |  |  |  |  |  | Nc1ccn([C@@H]2O[C@H](CO)[C@@H](O)[C@@H]2O)c(=O)n1 [CYTARABINE] |
|  |  |  |  |  |  | 1.43 | 573.2 | 1.52 | 1234 | 1.75 | 828.1 | 2 | Nc1ccn([C@@H]2O[C@H](CO)[C@@H](O)C2(F)F)c(=O)n1 [GEMCITABINE] |
